These results are taken from ChEMBL document CHEMBL1130055, “Discovery of a novel class of selective non-peptide antagonists for the human neurokinin-3 receptor. 1. Identification of the 4-quinolinecarboxamide framework” (J Med Chem, 1997).

As usually defined, the Ki is the equilibrium dissociation constant of an inhibitor or competing ligand from its target. A higher Ki goes with weaker binding.

This test deals with T1, Substance-K receptor (Homo sapiens, UniProt P21452).
T1 sequence (P21452 whole entry): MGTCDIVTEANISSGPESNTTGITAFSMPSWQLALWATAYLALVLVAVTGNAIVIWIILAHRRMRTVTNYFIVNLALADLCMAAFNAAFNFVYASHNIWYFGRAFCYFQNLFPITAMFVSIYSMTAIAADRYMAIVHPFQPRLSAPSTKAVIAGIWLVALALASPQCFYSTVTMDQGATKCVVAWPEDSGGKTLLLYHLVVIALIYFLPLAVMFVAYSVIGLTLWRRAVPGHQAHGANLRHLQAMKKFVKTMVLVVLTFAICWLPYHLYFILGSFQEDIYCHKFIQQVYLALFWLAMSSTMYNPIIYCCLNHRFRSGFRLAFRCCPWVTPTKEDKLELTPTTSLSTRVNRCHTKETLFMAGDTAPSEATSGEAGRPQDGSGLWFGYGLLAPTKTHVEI
Briefly: Inhibition of [125I]neurokinin A (NKA) binding in human Tachykinin receptor 2 of chinese hamster ovary (hNK-2-CHO) cell membranes.

Regarding `COC(=O)[C@@H](NC(=O)c1cc(-c2ccccc2)nc2ccccc12)c1ccccc1`, the affinity corresponds to a Ki of 8.33 µM. With `COC(=O)[C@H](NC(=O)c1cc(-c2ccccc2)nc2ccccc12)c1ccccc1` the figure was 1.22 µM.
